These results are taken from patent publication US9630965B2, “Fused amino pyridine as HSP90 inhibitors” (Curis, Inc., priority 2007, dated 2017).

Usually IC50 stands for the concentration needed to halve the response being measured. The low end stands for inhibition by little substance, the high end for a need for much substance.

The target of assay [1] is T1, HSP90 (Homo sapiens (Human), UniProt P07900). The assay can be described thus: Hsp90 chaperone assay (refolding of heat-denatured luciferase). Type of assay: biochemical. The protocol: (a) An In Vitro Assay which Determines the Ability of a Test Compound to Inhibit Hsp90 Chaperone Activity.
The Hsp90 chaperone assay was performed to measure the ability of HSP90 protein to refold the heat-denatured luciferase protein. HSP90 was first incubated with different concentrations of test compounds in denaturation buffer (25 mM Tris, pH7.5, 8 mM MgSO4, 0.01% bovine gamma globulin and 10% glycerol) at room temperature for 30 min. Luciferase protein was added to denaturation mix and incubated at 50° C. for 8 min. The final concentration of HSP90 and luciferase in denaturation mixture were 0.375 μM and 0.125 μM respectively. A 5 μl sample of the denatured mix was diluted into 25 μl of renaturation buffer (25 mM Tris, pH7.5, 8 mM MgSO4, 0.01% bovine gamma globulin and 10% glycerol, 0.5 mM ATP, 2 mM DTT, 5 mM KCl, 0.3 μM HSP70 and 0.15 μM HSP40). The renaturation reaction was incubated at room temperature for 150 min, followed by dilution of 10 μl of the renatured sample into 90 μl of luciferin reagent (Luclite, PerkinElmer Life Science). The mixture was incubated at dark for 5 min before reading the luminescence signal on a TopCount plate reader (PerkinElmer Life Science).

Assay [2] has as its target T1, HSP90. The assay can be described thus: HSP90 competition binding (fluorescence polarization) assay with FITC labeled GM. As to conditions: 24 hours of incubation at 4° C. The text has this: (b) HSP90 Competition Binding (Fluorescence Polarization) Assay.
A fluorescein isothiocyanate (FITC) labeled GM was purchase from InvivoGen (ant-fgl-1). The interaction between HSP90 and labeled GM forms the basis for the fluorescence polarization assay. A free and fast-tumbling FITC labeled GM emits random light with respect to the plane of polarization plane of excited light, resulting in a lower polarization degree (mP) value. When GM is bound to HSP90, the complex tumble slower and the emitted light is polarized, resulting in a higher mP value. […] The assay buffer contained 20 mM HEPES (pH 7.3), 50 mM KCl, 1 mM DTT, 50 mM MgCl2, 20 mM Na2MoO4, 0.01% NP40 with 0.1 mg/ml bovine gamma-globulin.
In general terms: In fluorescence polarisation assays a small probe gives low polarisation when free and higher when bound to something large.

In the case of `C#CCCCn1c(Sc2cccc(OC)c2)nc2c(N)nccc21` [Compound 11, 2-(3-methoxyphenylthio)-1-(pent-4-ynyl)-1H-imidazo[4,5-c]pyridin-4-amine], the IC50 in assay [1] was ≥ 10 µM; in assay [2] it was > 10 µM.
Take `C#CCCCn1c(Sc2cc(OC)ccc2I)nc2c(N)nccc21` [Compound 12, 2-(2-iodo-5-methoxyphenylthio)-1-(pent-4-ynyl)-1H-imidazo[4,5-c]pyridin-4-amine]: the IC50 is 1 to 10 µM in assay [1] and 0.1 to 1 µM in assay [2].
The corresponding values for `C#CCCCn1c(Sc2cc(OC)ccc2Br)nc2c(N)nccc21` [Compound 13, 2-(2-bromo-5-methoxyphenylthio)-1-(pent-4-ynyl)-1H-imidazo[4,5-c]pyridin-4-amine] are 1 to 10 µM and 1 to 10 µM.
`C#CCCCn1c(Sc2cc(OC)ccc2Cl)nc2c(N)nccc21` [Compound 14, 2-(2-chloro-5-methoxyphenylthio)-1-(pent-4-ynyl)-1H-imidazo[4,5-c]pyridin-4-amine]: the half-inhibitory concentration (IC50) in assay [1] and in assay [2] was 1 to 10 µM throughout.
With `C#CCCCn1c(Sc2cc(OC)ccc2[N+](=O)[O-])nc2c(N)nccc21` [Compound 17, 2-(5-methoxy-2-nitrophenylthio)-1-(pent-4-ynyl)-1H-imidazo[4,5-c]pyridin-4-amine], the figures for the IC50 in assay [1] and in assay [2] were ≥ 10 µM and > 10 µM, respectively.
For `C#CCCCn1c(Sc2cc(OC)ccc2C(C)=O)nc2c(N)nccc21` [Compound 19, 1-(2-(4-amino-1-(pent-4-ynyl)-1H-imidazo[4,5-c]pyridin-2-ylthio)-4-methoxyphenyl)ethanone], the IC50 in assay [1] and in assay [2] was 1 to 10 µM in each case.
